# What was measured:
# BiP mRNA [1] = assay: Treatment of Arabidopsis WT and saiI mutant, Northern blot of BiP; type: in vivo, Arabidopsis thaliana; conditions: Arabidopsis saiI mutant vs wild-type, SA 5 mM
# Description: WT and saiI mutants of the same ecotype were treated with cell wall-degrading enzymes and incubated for 6 hours. As a control (con), leaves were mock-infected with H2O. Total RNA was extracted and Northern blot analysis was performed for BiP and a hevein-like protein (Hel) which is known to be induced by CDEs of Erwinia carotovora (Vidal et al, in preparation).
# (§1) WT and saiI mutants of the same ecotype were sprayed with SA (5 mM) and incubated in the light. Total RNA was extracted and probed with the PR1 and BiP gene from Arabidopsis. The induction of PR1 in WT Arabidopsis was detected 3 hours after SA-treatment and continued to increase until 8 hours (FIG. 10). […] As in tobacco plants, BiP mRNA levels increase prior to PR1 transcripts in SA treated Arabidopsis plants (FIG. 10) and diminish after prolonged incubations (data not shown).
# (§2) Plants of Nicotiana tabacum cultivar Petit Havana (Maliga et al., 1973) were axenically grown in MS medium (Murashige and Skoog, 1962), 2% Sucrose in a temperature controlled room at 25° C. with a 16 h day/[…] regime and a light irradiance of 200 μE.m^−2.s^−1. Arabidopsis thaliana Nössen WT and saiI plants (Shah et al., 1997) were grown under the same conditions.
# Protoplasts RNAs were extracted as described by Jones et al., (1985). […]
# PR1 mRNA = assay: SA spraying of Arabidopsis WT and saiI mutant, Northern blot of PR1; type: in vivo, Arabidopsis thaliana; conditions: SA 5 mM
# Description: as §1, §2
# Plants were sprayed with 5 mM SA and 0.5% Tween 20 from all sides, ensuring contact on both sides of each leaf of the plant. Typically, 10 ml of the SA solution was sprayed onto each plant. Plants were then transferred from the 16 h day/8 h night regime to constant light regime.
# (§3) Protoplasts RNAs were extracted as described by Jones et al., (1985). Leaves were ground in frozen liquid nitrogen and transferred to NTES buffer (0.1 M NaCl, 10 mM Tris pH 7.5, 1 mM EDTA, 1% SDS). Protoplasts samples were frozen in liquid nitrogen and thawed in NTES buffer. RNA was extracted after adding an equal volume of phenol/chloroform. Ethanol precipitation was carried out after incubation at −20° C. for 16 hours. The pellet was resuspended and RNA was selectively precipitated with LiCl (2M LiCl) for 2 hours on ice. The pellet was washed with 70% ethanol and resuspended in diethyl pyrocarbonate-treated water. Gel blots of total RNA denatured in formamide and formaldehyde were prepared. RNA was blotted onto Hybond-N membrane (Amersham Corp), as described by the manufacturer. […]
# [2] = test system: β-1,3-glucanase gene expression; assay: Leaf treatment of tobacco plants, Northern blot of β-1,3-glucanase transcripts in local and systemic leaves; type: in vivo, Nicotiana tabacum; conditions: 3 and 8 hours of incubation
# Description: (§4) We have shown that treatment of tobacco plants with cell wall-degrading enzymes (CDE) leads to the rapid induction of β-1,3-glucanase and other PR genes, both locally and systemically (Vidal et al, 1997). […] We used a commercial preparation of fungal CDEs instead of custom made Erwinia-derived hydrolases to increase reproducibility. One leaf from each tobacco plant was treated with CDEs and the induction of BiP gene expression was analysed in the treated (local) and untreated (systemic) leaves from the same plant. […] This induction was observed locally as well systemically with the same timing and intensity. β-1,3-glucanase transcript accumulation is detectable only after 4 hours of incubation and reaches its plateau after 8 hours as described previously (Vidal et al, 1997). Whereas BiP induction is transient, β-1,3-glucanase mRNA levels continue to be high after prolonged incubation times (24-48 hours). […] The signal involved in the systemic response of BiP gene expression must therefore be transported very rapidly from the local leaf to the distal leaves.
# Even though BiP induction occurs prior to β-1,3 glucanase induction, we cannot rule out that other, as yet unidentified defence related proteins are induced more rapidly and perhaps before BiP in our experimental system. […]
# BiP gene expression = assay: Leaf treatment of tobacco plants, Northern blot of BiP transcripts in treated (local) and untreated (systemic) leaves; type: in vivo, Nicotiana tabacum; conditions: after 3 and 8 hours; tunicamycin 0.02 mM
# Text: as §4, with “reproducibility.” for “reproducibility. One leaf from each tobacco plant was treated with CDEs and the induction of BiP gene expression was analysed in the treated (local) and untreated (systemic) leaves from the same plant.”
# Even though BiP induction occurs prior to β-1,3 glucanase induction, we cannot rule out that other, as yet unidentified defence related proteins are induced more rapidly and perhaps before BiP in our experimental system. If this were the case, it would still be possible that the rapid induction of BiP is the result of a feedback mechanism due to ER stress resulting from the increased synthesis of proteins on the rough ER, the unfolded protein response (UPR). […]
# BiP mRNA [3] = assay: Tunicamycin treatment of tobacco protoplasts, Northern blot of BiP; type: cell-based, Nicotiana tabacum; conditions: tunicamycin 20 μg/mL, 2.5 hrs
# Description: To compare the CDE- and UPR-mediated induction of BiP, we wanted to test if both stimuli are additive. […] This is not surprising as protoplasts are prepared with CDEs. These protoplasts were then treated with tunicanycin, to superimpose the UPR onto the CDE response. […] The additional ER stress could trap BiP in malfolded protein complexes, thus making it unavailable to promote PR protein synthesis on the rough ER.
# as §3
Molecule,BiP mRNA levels in saiI mutants during SA-treatment (BiP mRNA [1]),PR1 induction during SA-treatment in saiI mutant (PR1 mRNA; Arabidopsis saiI mutant),"time after SA-treatment at which induction of PR1 is detected (PR1 mRNA; WT Arabidopsis, light)","time until which PR1 induction continues to increase (PR1 mRNA; WT Arabidopsis, light)","expression of β-1,3-glucanase, local and systemic [2]",BiP mRNA levels in the treated leaf (BiP gene expression),BiP induction on top of the CDE response in protoplasts (BiP mRNA [3])
"O=C(O)c1ccccc1O [SA, Salicylic Acid]",exactly the same induction pattern as in the wild-type plant,completely abolished,3 h,≤ 8 h,,,
tunicamycin,,,,,neither locally nor systemically induced,strong increase,further induction
